According to patent publication US20250179103A1, “6-OXODECAHYDROPYRROLO[1,2-A][1,5]DIAZOCINE AND 6-OXODECAHYDRO-4H-PYRROLO[2,1-D][1,5]THIAZOCINE DERIVATIVES AS STAT3 AND STAT6 MODULATORS FOR THE TREATMENT OF CANCER AND INFLAMMATORY CONDITIONS” (Recludix Pharma, Inc., priority 2022, published 2025):

Assays:
[1] = tested on: pY641-STAT6 in Peripheral Blood Mononuclear Cells (PBMC); experiment: MSD-pSTAT-PBMC Assay (pSTAT6, IL-4 stimulated); assay type: cell-based, Human; conditions: Homo sapiens, compound 3 hrs, then 1 ng/mL IL-4 for 10 min
Method in brief: (§1)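 Phospho-STAT readout used MSD electrochemiluminescence with total STAT3 or STAT6 capture in lysates of cryopreserved human PBMCs. Cells had 3 h compound exposure before a 10 min cytokine pulse: IL-6 10 ng/mL for pSTAT3, IL-4 1 ng/mL for pSTAT6. IC50 came from background-subtracted, DMSO-normalised signal, with categories A≤100 nM up to D>3 μM.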

[2] = tested on: pY705-STAT3 in Peripheral Blood Mononuclear Cells (PBMC); experiment: MSD-pSTAT-PBMC Assay (pSTAT3, IL-6 stimulated); assay type: cell-based, Human; conditions: Homo sapiens, compound 3 hrs, then 10 ng/mL IL-6 for 10 min
Method in brief: as §1

Row | Compound | IC50 [1] [nM] | IC50 [2] [nM]
1 | CCCOC(=O)OC(C)OP(=O)(OC(C)OC(=O)OCCC)C(F)(F)c1ccc2sc(C(=O)N[C@H]3CN(C(C)=O)CC[C@H]4CC[C@@H](C(=O)N(C)c5ccccc5)N4C3=O)cc2c1 (stereo partly drawn) [Compound 293, ((((2-(((5S,8S, 10aR)-3-acetyl-8-(methyl (phenyl)carbamoyl)-6-oxodecahydro-pyrrolo[1,2-a][1,5]diazocin-5-yl)carbamoyl)benzo[b]thiophen-5-yl)difluoro-methyl)phos-phoryl)bis(oxy)) bis(ethane-1,1-diyl) dipropyl bis(carbonate)] | > 3000 | > 3000
2 | CC(=O)N1CC[C@H]2CC[C@@H](C(=O)Nc3ccc4nnccc4c3)N2C(=O)[C@@H](NC(=O)c2cc3cc(C(F)(F)P(=O)(OCOC(=O)C(C)(C)C)OCOC(=O)C(C)(C)C)ccc3s2)C1 [Compound 294, ((((2-(((5S,8S, 10aR)-3-acetyl-8-(cinnolin-6-ylcarbamoyl)-6-oxodecahydro-pyrrolo[1,2-a][1,5]diazocin-5-yl)carbamoyl)benzo[b]thiophen-5-yl)difluoro-methyl)phos-phoryl)bis(oxy)) bis(methylene) bis(2,2-dimethylpro-panoate)] | 100 to 1000 | 100 to 1000
3 | CC(=O)N1CC[C@H]2CC[C@@H](C(=O)N(C)c3ccccc3)N2C(=O)[C@@H](NC(=O)c2cc3cc(C(F)P(=O)(OCOC(=O)C(C)(C)C)OCOC(=O)C(C)(C)C)ccc3s2)C1 (stereo partly drawn) [Compound 295, ((((2-(((5S,8S, 10aR)-3-acetyl-8-(methyl (phenyl)carbamoyl)-6-oxodecahydro-pyrrolo[1,2-a][1,5]diazocin-5-yl)carbamoyl)benzo[b]thiophen-5-yl)fluoro-methyl)phos-phoryl)bis(oxy))bis (methylene) bis(2,2-dimethylpro-panoate)] | 100 to 1000 | 100 to 1000
4 | CC(=O)N1CC[C@H]2CC[C@@H](C(=O)N(C)c3ccccc3)N2C(=O)[C@@H](NC(=O)c2cc3cc(C(F)(F)P(=O)(OCOC(=O)C(C)(C)C)OCOC(=O)C(C)(C)C)ccc3s2)C1 [Compound 296, ((((2-(((5S,8S, 10aR)-3-acetyl-8-(methyl (phenyl)carbamoyl)-6-oxodecahydro-pyrrolo[1,2-a][1,5]diazocin-5-yl)carbamoyl)benzo[b]thiophen-5-yl)difluoro-methyl)phos-phoryl)bis(oxy)) bis(methylene) bis(2,2-dimethylpro-panoate)] | ≤ 100 | 100 to 1000
5 | CC(=O)N1CC[C@H]2CC[C@@H](C(=O)N(C)c3ccccc3)N2C(=O)[C@@H](NC(=O)c2cc3cc(C(F)(F)P(=O)(OCOC(=O)C(C)(C)C)OCOC(=O)C(C)(C)C)ccc3[nH]2)C1 [Compound 300, ((((2-(((5S, 8S,10aR)-3-acetyl-8-(methyl (phenyl)carbamoyl)-6-oxodecahydro-pyrrolo[1,2-a][1,5]diazocin-5-yl)carbamoyl)-1H-indol-5-yl)difluoro-methyl)phos-phoryl)bis(oxy)) bis(methylene) bis(2,2-dimethylpro-panoate)] | 100 to 1000 | 100 to 1000
6 | CC(=O)N1CC[C@H]2CC[C@@H](C(=O)N3C[C@H](O)[C@@H](n4ccnn4)C3)N2C(=O)[C@@H](NC(=O)c2ccc3ccc(C(F)(F)P(=O)(OCCSC(=O)CC(C)C)OCCSC(=O)CC(C)C)cc3c2)C1 [Compound 305, S,S′-(((((7-(((5S,8S, 10aR)-3-acetyl-8-((3S,4S)-3-hydroxy-4-(1H-1,2,3-triazol-1-yl)pyrrolidine-1-carbonyl)-6-oxodecahydro-pyrrolo[1,2-a][1,5]diazocin-5-yl)carbamoyl)naphthalen-2-yl)difluoro-methyl)phos-phoryl)bis(oxy))bis(ethane-2,1-diyl)) bis(3-methylbutane-thioate)] | > 3000 | 1000 to 3000
7 | CC(=O)N1CC[C@H]2CC[C@@H](C(=O)N(C)c3ccccc3)N2C(=O)[C@@H](NC(=O)c2cc3cc(C(=O)P(=O)(OCOC(=O)C(C)(C)C)OCOC(=O)C(C)(C)C)ccc3s2)C1 [Compound 307, (((2-(((5S, 8S,10aR)-3-acetyl-8-(methyl (phenyl)carbamoyl)-6-oxo-decahydro-pyrrolo[1,2-a][1,5]diazocin-5-yl)carbamoyl)benzo[b]thiophene-5-carbonyl)phosphoryl)bis(oxy))bis (methylene) bis(2,2-dimethylpro-panoate)] | > 3000 | > 3000
8 | CC(=O)N1CC[C@H]2CC[C@@H](C(=O)Nc3ccc(-c4ccccc4)cc3)N2C(=O)[C@@H](NC(=O)c2cc3cc(C(F)(F)P(=O)(OCOC(=O)C(C)(C)C)OCOC(=O)C(C)(C)C)ccc3[nH]2)C1 [Compound 308, ((((2-(((5S, 8S,10aR)-8-([1,1′-biphenyl]-4-ylcarbamoyl)-3-acetyl-6-oxodecahydro-pyrrolo[1,2-a][1,5]diazocin-5-yl)carbamoyl)-1H-indol-5-yl)difluoro-methyl)phos-phoryl)bis(oxy)) bis(methylene) bis(2,2-dimethylpro-panoate)] | 100 to 1000 | 100 to 1000
9 | CC(=O)N1CC[C@H]2CC[C@@H](C(=O)Nc3cnc(S(C)(=O)=O)nc3)N2C(=O)[C@@H](NC(=O)c2cc3cc(C(F)(F)P(=O)(OCOC(=O)C(C)(C)C)OCOC(=O)C(C)(C)C)ccc3s2)C1 [Compound 309, ((((2-(((5S, 8S,10aR)-3-acetyl-8-((2-(methyl-sulfonyl)pyrimidin-5-yl)carbamoyl)-6-oxodecahydro-pyrrolo[1,2-a][1,5]diazocin-5-yl)carbamoyl)benzo[b]thiophen-5-yl)difluoro-methyl)phos-phoryl)bis(oxy)) bis(methylene) bis(2,2-dimethylpro-panoate)] | 1000 to 3000 | > 3000
10 | CC(=O)N1CC[C@H]2CC[C@@H](C(=O)N(C)c3ccc(-c4ccccc4)cc3)N2C(=O)[C@@H](NC(=O)c2cc3cc(C(F)(F)P(=O)(OCOC(=O)C(C)(C)C)OCOC(=O)C(C)(C)C)ccc3s2)C1 [Compound 310, ((((2-(((5S, 8S,10aR)-8-([1,1′-biphenyl]-4-yl(methyl)carbamoyl)-3-acetyl-6-oxodecahydro-pyrrolo[1,2-a][1,5]diazocin-5-yl)carbamoyl)benzo[b]thiophen-5-yl)difluoro-methyl)phos-phoryl)bis(oxy)) bis(methylene) bis(2,2-dimethylpro-panoate)] | 100 to 1000 | 100 to 1000
11 | CC(=O)N1CC[C@H]2CC[C@@H](C(=O)N(C)c3ccc(N4CCOCC4)cc3)N2C(=O)[C@@H](NC(=O)c2cc3cc(C(F)(F)P(=O)(OCOC(=O)C(C)(C)C)OCOC(=O)C(C)(C)C)ccc3s2)C1 [Compound 311, ((((2-(((5S, 8S,10aR)-3-acetyl-8-(methyl(4-morpholino-phenyl)carbamoyl)-6-oxodecahydro-pyrrolo[1,2-a][1,5]diazocin-5-yl)carbamoyl)benzo[b]thiophen-5-yl)difluoro-methyl)phos-phoryl)bis(oxy)) bis(methylene) bis(2,2-dimethylpro-panoate)] | 100 to 1000 | 1000 to 3000
